Measured values: patent publication US6841535B2, “Peptide-mediated transfection agents and methods of use” (Active Motif, priority 2000, dated 2005)
*1 amine or outer side, *2 acyl side, *3 side chain or, on linkers, in order; H or OH if unused. Where no end group is shown, it is not given here. Cysteamide = C(CS[*:3])N[*:1]

Columns and labels:
Type in all cases: cell-based
[1] = tested on: HS-68 and NIH 3T3 cell lines; experiment: Peptide delivery by vector peptides (fluorescently labeled peptide B / peptide A); conditions: transfection of fluorescently labeled peptide; one micromolar vector peptide; 1 h
Description: (§1) We evaluated the ability of peptides designed according to principles described herein, as well as variants thereof, to deliver peptides and proteins into HS-68 and NIH 3T3 cell lines. Peptide delivery was performed with a 32 mer peptide (peptide B), and in some cases a […] peptide (peptide A). The peptides were fluorescently labeled. Peptides (5.0×10^−8M or 5.0×10^−7M) were incubated with one micromolar vector peptide in cell culture medium in the absence of serum for 30 min. Cultured cells (0.5 to 1.0×10^6) were then overlaid with the preformed peptide/vector peptide complexes in 500 μL DMEM for one hour in the presence or absence of FCS. Complexes were formed prior to addition of FCS to avoid interactions between ep-vector and serum proteins. Following this transfection step, fresh DMEM supplemented with serum was added for another hour. Then cells were extensively washed, fixed and analyzed by fluorescence microscopy.
(§2) The results of the experiments testing the transfection properties of the peptides are presented as a table in which the sequences are aligned for optimal comparison: […]

[2] = tested on: HS-68 and NIH 3T3 cell lines; experiment: Drug delivery by vector peptides (ANS and Bis-ANS); conditions: transfection of ANS and Bis-ANS; incubated with peptide at a molar ratio of 1:20; 1 h
Description: For investigation of drug delivery, we used the naphthalene derivatives ANS and Bis-ANS, which have intrinsic fluorescence. The drugs was incubated with peptide at a molar ratio of 1:20, followed by overlay of the complex onto cultured cells. This was followed by incubation for 1 h. Then cells were extensively washed and observed by microscopy.
as §2

[3] = tested on: HS-68 and NIH 3T3 cell lines; experiment: Protein delivery by vector peptides (GFP); conditions: transfection of GFP; incubated with peptide at a molar ratio of 1:20; 1 h
Description: as §1
To investigate protein delivery we tested the delivery into cells of the fluorescent protein GFP. The protein was incubated with peptide at a molar ratio of 1:20, followed by overlay of the complex onto cultured cells. This was followed by incubation for 1 h. Then cells were extensively washed and fixed with formalin before observation.
as §2

Row | Substance | Pep [1] | Drug [2] | Pro [3]
1 | KETWWETWWETWSQKKKRKV [Pep-2.9-cya] | 5% | – | –
2 | KETWWETWWTEWSQPKKRKV [Pep-2.1-cya] | 80% | 20% | 70%
3 | KTWWETWWETWSQPKKRKV [Pep-4.2-cya] | Aggr. | Aggr. | Aggr.
4 | Lys Glu Thr Trp Trp Glu Thr Trp Thr Trp Ser Gln Pro Lys Lys Lys Arg Lys Val (Ac-KETWWETWTWSQPKKKRKV-Cysteamide) [Pep-2.4-cya] | 60% | 5% | 20-30%
5 | Lys Glu Thr Trp Trp Glu Thr Trp Trp Glu Thr Trp Ser Gln Pro Lys Lys Lys Arg Lys Val (Ac-KETWWETWWETWSQPKKKRKV-Cysteamide) [Pep-2.3-cya] | 60-70% | 30% | 50-70%
6 | Lys Glu Thr Trp Trp Glu Thr Trp Trp Thr Glu Ala Ser Gln Pro Lys Lys Arg Lys Val (Ac-KETWWETWWTEASQPKKRKV-Cysteamide) [Pep-2.2-cya] | – | 5% | 30%
7 | Lys Glu Thr Trp Trp Glu Thr Trp Trp Thr Glu Trp Ser Gln Pro Lys Lys Lys Arg Lys Val (Ac-KETWWETWWTEWSQPKKKRKV-Cysteamide) [Pep-2-cya] | – | 20% | –
8 | Lys Lys Lys Arg Lys Val Lys Glu Thr Trp Trp Glu Thr Trp Trp Glu Thr Val (Ac-KKKRKVKETWWETWWETV-Cysteamide; SMILES CC(=O)N[C@@H](CCCCN)C(=O)N[C@@H](CCCCN)C(=O)N[C@@H](CCCCN)C(=O)N[C@@H](CCCNC(=N)N)C(=O)N[C@@H](CCCCN)C(=O)N[C@H](C(=O)N[C@@H](CCCCN)C(=O)N[C@@H](CCC(=O)O)C(=O)N[C@H](C(=O)N[C@@H](Cc1c[nH]c2ccccc12)C(=O)N[C@@H](Cc1c[nH]c2ccccc12)C(=O)N[C@@H](CCC(=O)O)C(=O)N[C@H](C(=O)N[C@@H](Cc1c[nH]c2ccccc12)C(=O)N[C@@H](Cc1c[nH]c2ccccc12)C(=O)N[C@@H](CCC(=O)O)C(=O)N[C@H](C(=O)N[C@H](C(=O)NCCS)C(C)C)[C@@H](C)O)[C@@H](C)O)[C@@H](C)O)C(C)C) [Pep-2.6-cya] | 30% | – | 20%
9 | Lys Lys Lys Arg Lys Val Lys Pro Glu Thr Trp Trp Glu Thr Trp Trp Glu Thr Val (Ac-KKKRKVKPETWWETWWETV-Cysteamide) [Pep-2.7-cya] | 20-30% | – | 10-20%
10 | Lys Thr Trp Trp Glu Thr Trp Trp Glu Thr Ala Ser Gln Pro Lys Lys Arg Lys Val (Ac-KTWWETWWETASQPKKRKV-Cysteamide; SMILES CC(=O)N[C@@H](CCCCN)C(=O)N[C@H](C(=O)N[C@@H](Cc1c[nH]c2ccccc12)C(=O)N[C@@H](Cc1c[nH]c2ccccc12)C(=O)N[C@@H](CCC(=O)O)C(=O)N[C@H](C(=O)N[C@@H](Cc1c[nH]c2ccccc12)C(=O)N[C@@H](Cc1c[nH]c2ccccc12)C(=O)N[C@@H](CCC(=O)O)C(=O)N[C@H](C(=O)N[C@@H](C)C(=O)N[C@@H](CO)C(=O)N[C@@H](CCC(N)=O)C(=O)N1CCC[C@H]1C(=O)N[C@@H](CCCCN)C(=O)N[C@@H](CCCCN)C(=O)N[C@@H](CCCNC(=N)N)C(=O)N[C@@H](CCCCN)C(=O)N[C@H](C(=O)NCCS)C(C)C)[C@@H](C)O)[C@@H](C)O)[C@@H](C)O) [Pep-4.1-cya] | Aggr. | Aggr. | Aggr.
11 | Lys Trp Trp Glu Thr Trp Trp Glu Thr Trp Ser Gln Pro Lys Lys Lys Arg Lys Val (Ac-KWWETWWETWSQPKKKRKV-Cysteamide) [Pep-2.5-cya] | 50-60% | 5% | 5%
12 | Tyr Gly Phe Lys Lys Arg Arg Gln Pro Thr Trp Trp Glu Thr Trp Trp Thr Glu (Ac-YGFKKRRQPTWWETWWTE-Cysteamide) [Pep-1.1-cya] | 80% | 5% | 60%
